Measurements: patent US11333660B2, “Analytical process for predicting the therapeutic effect of BH3 mimetics” (MEDIZINISCHE HOCHSCHULE HANNOVER, priority 2017, dated 2022)

Key:
[1] = tested on: human CD45+ cells (BV173) from spleen of ABT-199/DEX/DAS treated mouse; test: TMRE FACS on human CD45+ spleen cells from the ABT-199/DEX/DAS treated mouse; type: cell-based; conditions: for TMRE fluorescence / MOMP (FIG. 10): ABT-199/DEX/DAS treated mouse CD45+ cells, 1 μM, 1 h; for TMRE fluorescence relative to 100% at beginning: ABT-199/DEX/DAS treated mouse spleen CD45+ cells, ABT-199 10 μM 1 h, FCCP 5 μM 15 min
Procedure: (§1) Cells were concurrently immunologically stained with APC-labelled anti-human CD45 antibody, to discriminate human leukemic from murine cells, and with TMRE. Measurement was by FACS, with gating for live human cells.
(§2) One of these BH3 mimetics was added to a separate aliquot of the cells suspended in cell culture medium to a final concentration of 1 μM. Concurrently, the cells were immunologically stained by adding a APC-labelled anti-human CD45 antibody to identify the tumour cells, and by adding TMRE. After 1 h, cells were analysed by FACS, with the gating set according to side scatter and forward scatter to select for live cells, and to select for CD45+ cells showing TMRE fluorescence.

[2] = tested on: CD19+ lymphoma cells in PBMC of a mantle-cell lymphoma patient; test: TMRE FACS on live CD19+ cells of PBMC from a mantle-cell lymphoma patient; type: cell-based, human; conditions: 3 h; for effect of inducing MOMP (reduced TMRE fluorescence in CD19+ cells): 1 μM, FIG. 7; for % (MeanFL relative to negative control) / MeanFL (mean TMRE fluorescence for the live CD19+ cells): CD19 gate, BH3 mimetics 1000 nM
Procedure: From a blood sample that was drawn from a patient diagnosed to have mantle-cell lymphoma, PBMC were isolated by density gradient centrifugation and suspended in cell culture medium. No further separation of cells was done but all the PBMC were contained in each aliquot dispensed from the isolated PBMC. […] For measurement, TMRE was added for measuring mitochondrial membrane potential, and for discriminating CD19+ lymphoma cells from normal CD19− cells, anti-CD19 antibody, APC-labelled, was added.
Measurement was by FACS after 3 h incubation under cell culture conditions subsequent to addition of the compounds to the aliquots of the cells.
The FACS results shown in FIG. 7 were taken in one measurement for each aliquot. […] This gating was applied to the measurement of the dye of the anti-CD19 antibody (CD19 APC) as shown in the center column (b, e, h, k, n, q) (R2). The measurement results for the viable lymphoma CD19+ cells in relation to MOMP are shown in the right hand column (c, f, i, l, o, r), with TMRE fluorescence indicating MOMP, i.e. lower TMRE fluorescence indicating increased MOMP.

[3] = tested on: human CD45+ cells (BV173) from spleen of untreated control mouse; test: TMRE FACS on human CD45+ spleen cells from the control mouse; type: cell-based; conditions: for TMRE fluorescence / MOMP (FIG. 10): control mouse CD45+ cells, 1 μM, 1 h; for TMRE fluorescence relative to 100% at beginning: FCCP 5 μM 15 min
Procedure: as §1
as §2, with “One of these BH3 mimetics was added to a separate aliquot of the cells suspended in cell culture medium to a final concentration of 1 μM.” left out

[4] = tested on: PBMC from a CLL patient; test: TMRE FACS on PBMC from a CLL patient; type: cell-based, human; conditions: 3 h, ABT-199 1 μM, FCCP 5 μM, mock MFI 121
Procedure: (§3) PBMC were isolated by density gradient centrifugation using Biocoll from the heparinized blood sample of a patient diagnosed to have CLL (ABT-199, Venetoclax, is approved for treatment of CLL with 17p-deletion). As a comparison, PBMC from a healthy donor were isolated. PBMC were suspended in RPMI1640 cell culture medium and transferred as aliquots into separate tubes, to which ABT-199 was added to a final concentration of 1 μM and incubated at 37° C. for 3 h in a 5% CO2 atmosphere. Subsequently, TMRE was added to 50 nM and aliquots were further incubated for 30 min, then analysed by FACS according to the invention. As a negative control (mock), physiological saline was added, as a positive control FCCP to 5 μM (FCCP).

[5] = tested on: PBMC; test: analytical process: TMRE fluorescence by FACS on PBMC aliquots (FIG. 1b); type: cell-based
Procedure: In this analysis incubation of PBMC aliquots in cell culture medium with the pharmaceutical compound, negative control or positive control was for 30 min, incubation after subsequent addition of fluorescent dye TMRE was for 10 min, both at 37° C., 5% CO2 atmosphere as cell culture conditions.

[6] = tested on: in vitro cultivated BV173 cells; test: TMRE FACS on in vitro cultivated BV173 cells; type: cell-based, human; conditions: in vitro cultured BV173, ABT-199 10 μM 1 h; for TMRE fluorescence relative to 100% at beginning: FCCP 5 μM 15 min
[7] = tested on: PBMC from a healthy donor; test: TMRE FACS on PBMC from a healthy donor; type: cell-based, human; conditions: 3 h, ABT-199 1 μM, FCCP 5 μM, mock MFI 232
Procedure: as §3

[8] = tested on: SUP-B15 cells; test: propidium iodide (PI) staining of SUP-B15 cells; type: cell-based; conditions: 1 μM, 24 h process
Procedure: (§4) As a positive control, FCCP was added to one aliquot of the cell suspension to 5 μM final concentration. TMRE fluorescence was measured by FACS after 30 min incubation after addition of TMRE.
For comparison, apoptosis was measured by propidium iodide (PI) staining, the entire process having a duration of 24 h.

[9] = tested on: PBMC or BM mononuclear cells from ALL patients; test: TMRE FACS on PBMC or BM cells from ALL patients; type: cell-based, human; conditions: ABT-199 1 μM, 3 h, ALL samples (n=12)
Procedure: (§5) PBMC or BM mononuclear cells were isolated by density gradient centrifugation from blood or bone marrow samples originating from patients who were newly diagnosed as ALL (n=12), from blood or bone marrow samples originating from CML patients in chronic phase (CML-CP, n=7), and from blood samples obtained from healthy volunteers (n=6). In accordance with the analytical process, PBMC or BM cells were incubated in cell culture medium with ABT-199 added to 1 μM for 3 h at 37° C. in a 5% CO2 atmosphere for cell culture conditions, followed by addition of TMRE to 50 nM and incubation for another 30 min, then analysed by FACS for fluorescence by TMRE.

[10] = tested on: PBMC or BM mononuclear cells from CML patients in chronic phase; test: TMRE FACS on PBMC or BM cells from CML-CP patients; type: cell-based, human; conditions: ABT-199 1 μM, 3 h, CML-CP samples (n=7)
Procedure: as §5

[11] = tested on: B-ALL cell line SUP-B15 (BCR-ABL-positive); test: TMRE FACS measurement of MOMP in SUP-B15 cells; type: cell-based; conditions: 3 h
Procedure: As representatives for isolated PBMC, BM or LN mononuclear cells, the B-ALL cell lines SUP-B15, which expresses BCR-ABL (BCR-ABL-positive), and the BCR-ABL negative REH were used in the analytical process in suspension in cell culture medium RPMI1640. […] After incubation at 37° C. for 3 h, TMRE was added to a final concentration of 50 nM and the aliquots were incubated for further 15 min at 37° C., in a 5% CO2 atmosphere each time.
as §4

[12] = tested on: PBMC from healthy donors; test: TMRE FACS on PBMC from healthy volunteers; type: cell-based, human; conditions: ABT-199 1 μM, 3 h, healthy donors (n=6)
Procedure: as §5

[13] = tested on: BCR-ABL negative REH cells; test: TMRE FACS measurement of MOMP in REH cells; type: cell-based; conditions: ABT-199 10 nM, 3 h
Procedure: As representatives for isolated PBMC, BM or LN mononuclear cells, the B-ALL cell lines SUP-B15, which expresses BCR-ABL (BCR-ABL-positive), and the BCR-ABL negative REH were used in the analytical process in suspension in cell culture medium RPMI1640. As a positive control for MOMP, FCCP was added to 5 μM to one aliquot, as a negative control an aliquot of the suspended cells was used with addition of the same volume of physiological saline, and ABT-199 was added to 10 nM final concentration. After incubation at 37° C. for 3 h, TMRE was added to a final concentration of 50 nM and the aliquots were incubated for further 15 min at 37° C., in a 5% CO2 atmosphere each time.

[14] = tested on: blood cells obtained from a CLL patient; conditions: 6 h after contact in vitro; cited from earlier work
[15] = CD19+ cells, BH3 mimetics 1 μM, FCCP 5 μM, in comparison to the negative control
[16] = control mouse spleen CD45+ cells, ABT-199 10 μM 1 h

| Compound | TMRE fluorescence / MOMP (FIG. 10) [1] | effect of inducing MOMP (reduced TMRE fluorescence in CD19+ cells) [2] | mean TMRE fluorescence relative to negative control [2, 15] [%] | % (MeanFL relative to negative control) ([2]; FCCP 5 μM) [%] | MeanFL (mean TMRE fluorescence for the live CD19+ cells) ([2]; FCCP 5 μM) | TMRE fluorescence / MOMP (FIG. 10) [3] | MFI (TMRE) [4] | TMRE fluorescence relative to 100% at beginning [1] | TMRE fluorescence relative to 100% at beginning [6] | MFI (TMRE) [7] | TMRE fluorescence relative to 100% at beginning [3, 16] | also measured |
| --- | --- | --- | --- | --- | --- | --- | --- | --- | --- | --- | --- | --- |
| CN(C)CC[C@H](CSc1ccccc1)Nc1ccc(S(=O)(=O)NC(=O)c2ccc(N3CCN(Cc4ccccc4-c4ccc(Cl)cc4)CC3)cc2)cc1[N+](=O)[O-] [ABT-737] | reduced TMRE fluorescence | effective in inducing MOMP | 9.9 | 9.9 | 69 | reduced TMRE fluorescence |  |  |  |  |  |  |
| Cc1c(-c2ccc(N3CCc4cccc(C(=O)Nc5nc6ccccc6s5)c4C3)nc2C(=O)O)cnn1CC12CC3CC(CC(C3)C1)C2 [A1331852] | strongly reduced TMRE fluorescence | less pronounced effect | 29.1 | 29.1 | 203 | strongly reduced TMRE fluorescence |  |  |  |  |  |  |
| N#CC(C#N)=NNc1ccc(OC(F)(F)F)cc1 [FCCP, carbonyl cyanide-4-(trifluoro-methoxy)phenylhydrazone] |  |  | 15.6 | 15.6 | 109 |  | 60 | ~20% | ~20% | 106 | ~20% | mean fluorescence intensity (MFI) of TMRE ([5]; incubation 30 min, TMRE 10 min, 37° C., negative control MFI 612): 95 |
| Cc1c(-c2c(-c3ccc(F)o3)sc3ncnc(O[C@H](Cc4ccccc4OCc4ccnn4CC(F)(F)F)C(=O)O)c23)ccc(OCCN2CCN(C)CC2)c1Cl [S63845] | high TMRE fluorescence | less pronounced effect |  | 56.7 | 396 | high TMRE fluorescence |  |  |  |  |  | proportion of cells without MOMP [2, 15]: 56.7% |
| CC1(C)CCC(CN2CCN(c3ccc(C(=O)NS(=O)(=O)c4ccc(NCC5CCOCC5)c([N+](=O)[O-])c4)c(Oc4cnc5[nH]ccc5c4)c3)CC2)=C(c2ccc(Cl)cc2)C1 [ABT-199] |  | effective in inducing MOMP | 9.3 | 9.3 | 65 |  | 53 | no response | approx. 60% | 242 | approx. 60% | induction of apoptosis by PI staining [8]: significant induction of apoptosis; induction of apoptosis (TMRE FACS) [9]: strong induction of apoptosis; induction of apoptosis (TMRE FACS) [10]: essentially no induction of apoptosis; FACS peak distribution of TMRE fluorescence ([5]; ABT-199 5 μM to 10 μM, 30 min incubation): the peak at the position of the positive control increasing with the concentration; induction of apoptosis by the process of the invention (TMRE) ([11]; 1 μM): significant induction of apoptosis; reduction of MFI (TMRE) ([11]; ABT-199 10 nM, versus negative control): approx. 40%; proportion of cells with MOMP [6]: 40%; induction of apoptosis (TMRE FACS) [12]: essentially no induction of apoptosis; MFI (TMRE) in comparison to the negative control [13]: essentially remains unaffected; proportion of cells with MOMP [3, 16]: 40% |
| CN1CC[C@H](c2c(O)cc(O)c3c(=O)cc(-c4ccccc4Cl)oc23)[C@H](O)C1 [Flavopiridol] |  |  |  |  |  |  |  |  |  |  |  | mitochondrial membrane depolarization (JC-1) [14]: mitochondrial membrane depolarization was detected |
